The record followed here is PMC9124866, “Structure-Activity Relationships of Dopamine Transporter Pharmacological Chaperones” (Frontiers in Cellular Neuroscience, 2022).

Chain of YFP-HA-βlac-DAT (Q01959 1-171 limits assumed): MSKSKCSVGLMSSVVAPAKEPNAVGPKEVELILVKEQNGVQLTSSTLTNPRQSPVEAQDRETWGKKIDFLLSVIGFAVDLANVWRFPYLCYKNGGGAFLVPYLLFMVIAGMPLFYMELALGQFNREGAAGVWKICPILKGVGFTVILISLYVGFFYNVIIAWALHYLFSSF
Chain of YFP-HA-βlac-DAT (Q01959 237-620 limits assumed): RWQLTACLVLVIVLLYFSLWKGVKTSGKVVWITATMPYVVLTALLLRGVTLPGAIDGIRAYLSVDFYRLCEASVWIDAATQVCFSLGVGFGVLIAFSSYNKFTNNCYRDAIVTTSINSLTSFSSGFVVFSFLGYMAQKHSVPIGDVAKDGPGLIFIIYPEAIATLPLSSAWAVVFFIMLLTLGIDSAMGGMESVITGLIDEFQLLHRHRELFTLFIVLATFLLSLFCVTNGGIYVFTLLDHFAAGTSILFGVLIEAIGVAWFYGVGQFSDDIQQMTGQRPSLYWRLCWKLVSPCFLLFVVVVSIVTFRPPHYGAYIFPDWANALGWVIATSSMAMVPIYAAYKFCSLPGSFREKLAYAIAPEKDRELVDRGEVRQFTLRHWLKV

One assay has as its target YFP-HA-βlac-DAT (Homo sapiens, UniProt Q01959). Put plainly: β-lactamase (βlac) surface expression assay. Format: cell-based. Particulars: HEK293, HEK cells expressing YFP-HA-βlac-DAT, overnight (16 h) incubation, up to 100 μM, normalized to vehicle; assumed effective EMax; read-out: EMax (%), WT DAT surface expression. As to the method:
The βlac surface expression assay was performed by following the method outlined in [Lam et al. (2013)] and [Beerepoot et al. (2015], [2016)]. The assay substrate nitrocefin (BD biosciences) was dissolved in dimethyl sulfoxide (DMSO) at a concentration of 10 mM and frozen at −80°C. Immediately before use, it was thawed and diluted to a final concentration of 100 μM in phosphate buffered saline (PBS). Cells (1 × 10^5/well) were seeded into a poly-D-lysine-coated 48-well plate and incubated for 24 h, prior to drug treatment. Drugs were added to individual wells at varying concentrations and incubated for 16 h. Subsequently, the media was aspirated, and the cells were washed twice with PBS. After removal of the final PBS wash, 200 μL of the nitrocefin solution was added to each well and the absorbance was immediately read. The EPOCH microplate spectrophotometer (BioTek) was used to measure absorbance (486 nm) for each well every minute for 30 min. The rate of reaction (slope of the curve) was used as the readout for the assay ([Beerepoot et al., 2015]). To determine suitable concentration ranges for each drug, they were dissolved in PBS or DMSO at the highest concentration possible. From here, the solutions were serial diluted 1/10 to yield 8 different concentrations. βLAC cells were then treated with the varying drug concentrations and cell viability was recorded using light microscopy. For additional measure, nitrocefin was added and the absorbance was read. For certain cases, Trypan Blue was used to quantitatively differentiate increased cell death from reduced cell division. […] Five or six doses were generally used in subsequent dosing experiments, starting at the highest non-toxic concentration.
Data analysis was performed using GraphPad Prism (GraphPad Software, La Jolla, CA). Linear regression analysis was performed on βLAC time points to determine the slope, thus the rate of reaction, for comparison. Furthermore, the slope was also used to determine the degree of dopamine uptake in the dopamine uptake assays. Non-linear regression, fitting to the log(agonist) vs. response and log(inhibitor) vs. response model curve, was used to determine dose-response relationships of surface expression and uptake assays, respectively. One-way ANOVA with Dunnett’s post hoc-test was used for the β-lactamase assay and one-way ANOVA with Bonferroni correction was used for western blot analysis.
Among these were RTI-1, RTI-2, RTI-5, RTI-6, RTI-11, RTI-20, and PAL-1007. […] The EMax values of all the analyzed drugs are included in Figure 1.
The pharmacological chaperone ability of the 15 ibogaine and tryptamine analogs, shown in Figure 3, were measured using the βlac surface expression assay. HEK cells expressing YFP-HA-βlac-DAT were incubated overnight with these compounds at concentrations varying by log and half-log dilutions, starting at 100 μM final concentration. […] Furthermore, it was important to determine whether the β-carboline analogs could also elicit a chaperone effect because they are not classified as DAT ligands ([Cao et al., 2007]). […] Removing the nitrogen from the ring reduced efficacy as observed with frovatriptan (103 ± 1.4%). […] Evodiamine (54 ± 1.7%) had no chaperone ability and caused a substantial reduction in the surface expression of DAT. Dose-response curves were generated to assess the pharmacological chaperone potencies of select compounds (Figure 4).
Usually Emax stands for the size of the effect at its maximum, as opposed to the concentration needed. As to `CC(NC(C)(C)C)C(=O)c1ccc(F)c(F)c1` (stereo not shown) [RTI-13], the Emax was 99 ± 4.3%.

Regarding `CC(NC1CC1)C(=O)c1cccc(Cl)c1` (stereo not shown) [PAL-433], the Emax came out at 93 ± 10.4%.

On to `CC(NC1CCC1)C(=O)c1cccc(F)c1` (stereo not shown) [PAL-1008], for which the Emax amounted to 96 ± 7.3%.

With `CC(NC1CC1)C(=O)c1ccc(F)c(Cl)c1` (stereo not shown) [PAL-819], the Emax was 90 ± 5%.

For `CC(NC(C)(C)C)C(=O)c1ccc(Cl)c(Cl)c1` (stereo not shown) [RTI-4], the Emax was 110 ± 5.7%.

Regarding `CC(NC1CCC1)C(=O)c1ccc2c(c1)OCO2` (stereo not shown) [PAL-1414], the Emax turned out to be 102%.

As for `Cc1cccc(C(=O)C(C)NC(C)(C)C)c1` (stereo not shown) [RTI-6], the Emax came out at 134 ± 9.6%.

Turning to `COc1cccc(C(=O)C(C)NC(C)(C)C)c1` (stereo not shown) [PAL-1465], the Emax is 91%.

As to `CC(C(=O)c1cccc(Cl)c1)N(C)C(C)(C)C` (stereo not shown) [RTI-9], the Emax came out at 87 ± 14.6%.

Turning to `CC(NC1CCC1)C(=O)c1c[nH]c2ccccc12` (stereo not shown) [PAL-1407], the maximal response (Emax) is 98 ± 3.9%.

As to `CCC(NC(C)(C)C)C(=O)c1cccc(Cl)c1` (stereo not shown) [RTI-11], the Emax amounted to 131 ± 3.7%.

Regarding `CC(NC1CCC1)C(=O)c1cccc(Cl)c1` (stereo not shown) [PAL-1007], the Emax came to 136 ± 9.1%.

As to `Cc1ccc(C(=O)C(C)N)cc1` (stereo not shown) [PAL-1270], the Emax was determined as 104 ± 2.3%.

As for `CC1NC(C)(C)COC1(O)c1cc(F)cc(F)c1` (stereo not shown) [RTI-18], the Emax is 122%.

In the case of `CC(NC1CCC1)C(=O)c1ccccc1` (stereo not shown) [PAL-933], the Emax amounted to 114 ± 2.3%.

For `CC(NC(C)(C)C)C(=O)c1ccc(Cl)cc1` (stereo not shown) [RTI-3], the Emax was 113 ± 6.2%.

For `CC(NC(C)(C)C)C(=O)c1ccccc1` (stereo not shown) [PAL-1463], the Emax came out at 117%.

On to `CC(NC(C)(C)C)C(=O)c1cc(Cl)cc(Cl)c1` (stereo not shown) [RTI-17], for which the Emax turned out to be 78 ± 2.8%.

For `CC(NC(C)(C)C)C(=O)c1cccc(Br)c1` (stereo not shown) [RTI-1], the Emax amounted to 161 ± 2.7%.

For the compound `CC(C)NC(C)C(=O)c1cccc(Cl)c1` (stereo not shown) [PAL-1467], the Emax was 100 ± 4%.

Consider `Cc1ccc(C(=O)C(C)N(C)Cc2ccccc2)cc1` (stereo not shown) [PAL-945], for which the Emax worked out at 85%.

For `CC(C(=O)c1cccc(Cl)c1)N(C)C` (stereo not shown) [RTI-8], the Emax worked out at 107 ± 6.3%.

For the compound `CCCN(CCC)CCc1c[nH]c2ccc(OC)cc12` [PAL-709], the Emax was 97 ± 7.2%.

As for `NCCc1c[nH]c2ccccc12` [Tryptamine, tryptamine, reference compound], the Emax worked out at 104 ± 1.6%.

For the compound `CN1CCc2[nH]c3ccc(O)cc3c2CC1` [Noribogainalog, noribogainalog], the Emax turned out to be 185 ± 17.9%.

Consider `C[C@@H](NC1CCC1)C(=O)c1cccc(Cl)c1` [PAL-1132], for which the Emax was determined as 110%.

In the case of `CC(NC(C)(C)C)C(=O)c1cccc(F)c1` (stereo not shown) [PAL-1466], the Emax was 100%.

For the compound `CC(C)N(CCc1c[nH]c2cccc(O)c12)C(C)C` [PAL-1416], the Emax stood at 127 ± 6.6%.

As to `Cc1cccc(C(=O)C(C)NC2CCC2)c1` (stereo not shown) [PAL-1411], the Emax amounted to 110 ± 4.5%.

For the compound `CC(NC1CC1)C(=O)c1cccc(Br)c1` (stereo not shown) [PAL-586], the Emax worked out at 93 ± 5.8%.

Consider `CC(NC1CC1)C(=O)c1cccc(C(F)(F)F)c1` (stereo not shown) [PAL-1178], for which the Emax was 92 ± 1.2%.

Consider `COc1cccc(C(=O)C(C)NC2CC2)c1` (stereo not shown) [PAL-789], for which the Emax came to 93 ± 10.6%.

With `CNC(C)C(=O)c1cccc(C)c1` (stereo not shown) [PAL-1101], the maximum response (Emax) amounted to 105 ± 3.6%.

For `CC(C(=O)c1cccc(Cl)c1)N1CCCCC1` (stereo not shown) [RTI-7], the Emax was 102 ± 3.9%.

As to `COc1ccc2c3c([nH]c2c1)CCN(C)CC3` [Tabernanthalog, tabernanthalog], the Emax worked out at 179 ± 9.1%.

With `CN1CCc2[nH]c3ccccc3c2CC1` [Ibogaminalog], the Emax turned out to be 175 ± 12.9%.

As for `COc1ccc2[nH]c3c(c2c1)CCN(C)CC3` [Ibogainealog, ibogainealog], the Emax amounted to 169 ± 13.7%.

Take `CC(Cc1cccc(Cl)c1)NC(C)(C)C` (stereo not shown) [PAL-1468]: the Emax amounted to 117%.

Take `CC(NC(C)(C)C)C(=O)c1ccc(Br)cc1` (stereo not shown) [RTI-2]: the Emax came to 127 ± 2.6%.

In the case of `C[C@H](NC1CCC1)C(=O)c1cccc(Cl)c1` [PAL-1134], the Emax came to 98%.

`CC1NC(C)(C)COC1(O)c1cc(Cl)cc(Cl)c1` (stereo not shown) [RTI-21]: the Emax was found to be 103 ± 3.7%.

The assay is the same for the next values; noted with them: HEK293, HEK cells expressing YFP-HA-βlac-DAT, overnight incubation, normalized to vehicle; read-out: EMax (%), WT DAT surface expression.
In the case of `CN[C@@H](C)[C@H](O)c1ccccc1` [Ephedrine, ephedrine, reference compound], the Emax worked out at 128 ± 4.7%.

The assay is the same for the next values; noted with them: HEK293, read-out: EMax (%), WT DAT surface expression, HEK cells expressing YFP-HA-βlac-DAT, overnight (16 h) incubation, up to 100 μM, normalized to vehicle; assumed effective EMax.
In the case of `CC1NC(C)(C)COC1(O)c1cccc(Cl)c1` (stereo not shown) [6-Hydroxybupropion, 6-hydroxybupropion, reference compound], the Emax is 148 ± 5.4%.

As for `CN[C@@H]1CCc2[nH]c3ccc(C(N)=O)cc3c2C1` [Frovatriptan, frovatriptan, reference compound], the Emax is 103 ± 1.4%.

For the compound `COc1ccc2[nH]c3c(c2c1)CCNC3` [Pinoline, pinoline, reference compound], the Emax was 141 ± 4.4%.

Turning to `CC[C@H]1C[C@@H]2C[C@H]3c4[nH]c5ccccc5c4CCN(C2)[C@@H]13` [Ibogamine, reference compound], the Emax came out at 202 ± 7.1%.

As for `CC(CNC(C)(C)C)C(=O)c1cccc(Cl)c1` (stereo not shown) [RTI-10], the Emax is 36 ± 1.4%.

Turning to `CN1CCc2[nH]c3ccc(F)cc3c2CC1` [Fluorogainalog, fluorogainalog], the Emax worked out at 219 ± 29%.

Staying with this assay, now noted: HEK cells expressing YFP-HA-βlac-DAT, overnight (16 h) incubation, up to 100 μM, normalized to vehicle; assumed effective EMax.
As to evodiamine [reference compound], the “EMax (%), WT DAT surface expression” value was found to be 54 ± 1.7%.
